Assays:
[1] = system: CD4+ CD25− T cells (Th1, Th2, iTreg differentiation, proliferation, CD25), CD8+ T cells, B cells; experiment: T and B cell activation, proliferation and Th1, Th2, iTreg differentiation; format: cell-based, murine; settings: polarizing cytokine conditions; IFNγ, IL-4, Foxp3 expression
Protocol: Cytokines secreted into media supernatant were measured using the mouse Th1/Th2 cytometric bead array (CBA—BD Pharmingen) in accordance with manufacturers instructions.

[2] = system: Th17 differentiation of CD4+ CD25− T cells; experiment: Th17 differentiation of CD4+ CD25− T cells (IL-17+ IFNγ− cells, intracellular cytokine staining); settings: activated in the presence of TGFβ plus IL-6, intracellular cytokine staining day 4
Protocol: Purified CD4^+ CD25^− T cells were activated in vitro as previously described (Djuretic et al., Nat. Immunol. 8:145, 2007) using 0.3 μg/ml hamster anti-mouse CD3 (clone 145-2C11) (ATCC, Manassas, Va.) and 0.5 μg/ml hamster anti-mouse CD28 (BD Pharmingen, San Jose, Calif.). Activated cell cultures were differentiated using the following combinations of cytokines and antibodies: iTreg—recombinant human TGFβ1 (3 ng/ml—R&D systems, Minneapolis, Minn.), Th17-TGFβ1 (3 ng/ml) plus recombinant mouse IL-6 (30 ng/ml—R&D systems). […] Human IL-2 supernatant (National Cancer Institute) was used in culture at 0.01 U/ml and was added at 48 hours-post activation when T cells were split into tissue culture wells lacking CD3 and CD28 antibodies, with the exception of Th17 cultures that were maintained in the absence of exogenous IL-2. […] All reagents (see below) were added at the time of T cell activation and again at 48 hours post activation unless indicated otherwise.
For detection of intracellular cytokines in murine cells, cultured T or B cells were stimulated with 10 nM PMA (Sigma) and 1 mM ionomycin (Sigma) for 4-5 hours in the presence of 10 mM brefeldin A (Sigma). Stimulated cells were harvested, washed with PBS and fixed with PBS plus 4% paraformaldehyde at room temperature for 20 minutes. Cells were then washed with PBS, permeabilized with PBS supplemented with 1% BSA and 0.5% saponin (Sigma) at room temperature for 10 minutes before cytokine-specific antibodies were added and incubated with cells for an additional 20 minutes at room temperature. […] All stained cells were stored at 4° C. in PBS plus 1% paraformaldehyde prior to FACS analyses.
All cell surface staining was performed in FACS buffer (PBS/2% FBS/0.1% NaN3) and antibodies were incubated with cells on ice for 20-30 minutes. Cells were washed with FACS buffer and fixed with FACS buffer plus 1% paraformaldehyde prior to data acquisition.

[3] = system: Human primary dermal fibroblasts; experiment: Inhibition of cell spreading in a fibroblast model; format: cell-based; design: key: “+++” vs. “++” vs. “+” in general denotes ˜4-fold differences in potency; “+++” vs. “++” vs. “+” in general denotes ˜4-fold differences in potency; “+++” vs. “++” vs. “+” in general denotes ˜4-fold differences in potency; “−” denotes no activity at any dose tested, up to 1000× the effective dose of halofuginone; settings: spreading of cells assessed by light microscopy 28 hours after treatment
Protocol: The ability of halofuginone and analogs thereof to inhibit the spreading of freshly plated primary dermal fibroblasts was examined. Human primary dermal fibroblasts were replated and halofuginone added immediately after replating; spreading of cells was assessed by light microscopy 28 hours after treatment with compound. “+++” vs. “++” vs. “+” in general denotes ˜4-fold differences in potency. “−” denotes no activity at any dose tested, up to 1000× the effective dose of halofuginone.

[4] = system: translation of luciferase RNA in rabbit reticulocyte lysate; experiment: Translation of a luciferase RNA reporter in rabbit reticulocyte lysate; format: biochemical; design: key to Translational inhibition: “+++” vs. “++” vs. “+” in general denotes ˜4-fold differences in potency; “+++” vs. “++” vs. “+” in general denotes ˜4-fold differences in potency; “+++” vs. “++” vs. “+” in general denotes ˜4-fold differences in potency; “−” denotes no activity at any dose tested, up to 1000× the effective dose of halofuginone; settings: luciferase RNA reporter
Protocol: To distinguish these possibilities, the effect of halofuginone on protein translation was examined in an in vitro system (rabbit reticulocyte lysate) in which amino acids are already present at levels adequate to support protein synthesis. […] Distinct tRNA synthetases catalyze the charging of individual tRNA species with their cognate amino acid. To determine which tRNA synthetase is inhibited by halofuginone, several amino acid mixtures were added to the in vitro translation system to determine which, if any, could reverse the inhibition of translation by halofuginone (FIG. 3). […] To examine whether proline could specifically rescue the effect of halofuginone in intact cells, the ability of each amino acid to reverse the effect of halofuginone on eIF2alpha phosphorylation in T-cells or to prevent halofuginone inhibition of Th17 differentiation was tested (FIG. 4). […] Inhibition of EPRS with compounds of the current invention can inhibit Th17 differentiation.
Translation in vitro was performed using rabbit reticulocyte lysates and luciferase mRNA as template. Translation was measured as arbitrary units of luciferase activity using a luminometer based luminescence assay. Log scale presentation of background-subtracted data is shown.
Inhibition of translation of luciferase RNA by halofuginone and analogs thereof was measured as described in FIG. 3 above. Results are shown of translation of a luciferase RNA reporter in a rabbit reticulocyte lysate. “+++” vs. “++” vs. “+” in general denotes ˜4-fold differences in potency. “−” denotes no activity at any dose tested, up to 1000× the effective dose of halofuginone.

[5] = system: Differentiation of primary naïve T-cells into Th17 cells; experiment: Inhibition of Th17 differentiation of primary naïve T-cells by halofuginone analogs; format: cell-based, murine; design: key: “+++” vs. “++” vs. “+” in general denotes ˜4-fold differences in potency; “+++” vs. “++” vs. “+” in general denotes ˜4-fold differences in potency; “+++” vs. “++” vs. “+” in general denotes ˜4-fold differences in potency; “−” denotes no activity at any dose tested, up to 1000× the effective dose of halofuginone; settings: T-cell receptor stimulation+IL-6+TGFb
Protocol: Naïve T-cells were stimulated to differentiate in the presence or absence of 10 nM halofuginone, with 1 mM of the indicated amino acids added to the medium, and stained for Th17 differentiation on day 4. Naïve murine T cells were activated in the presence or absence of TGFβ plus IL-6 as indicated, expanded in for 4 days and restimulated with PMA and ionomycin for intracellular cytokine staining. […] Bars indicate percentage of cells differentiation as Th17 as indicated by IL17 expression.
The effect of different halofuginone and analogs thereof on differentiation of naïve T-cells was assayed as described in legend for FIG. 4 above. Differentiation of primary naïve T-cells into Th17 cells following T-cell receptor stimulation+IL-6+TGFb. “+++” vs. “++” vs. “+” in general denotes ˜4-fold differences in potency. “−” denotes no activity at any dose tested, up to 1000× the effective dose of halofuginone.

[6] = system: eIF2α phosphorylation and ATF4 protein levels in CD4+ CD25− T cells; experiment: Amino acid response (AAR) pathway activation in T cells, western blot; format: cell-based, mice; settings: 4 hours
Protocol: CD4+ CD25− T cells purified from wild type of GCN2−/− mice were activated through TCR for 4 hours in the presence of halofuginone (10 nM) or 9 (MAZ1310, 10 nM). Whole cell lysates were analyzed by SDS PAGE/Western blot and antibodies indicated.
Naïve T-cells were treated to stimulate the T-cell receptor (TCR) in the presence or absence of 10 nM halofuginone in the presence of 1 mM added amino acid, and then assayed for eIF2alpha activity phosphorylation by SDS PAGE/Western blot.
HF induced detectable eIF2α phosphorylation at 2.5 nM, and this effect plateaued at 5-10 nM HF (FIG. 7D). […] AAR activation was a general consequence of HF treatment; HF induced eIF2α phosphorylation, not only in T cells activated in Th17-priming conditions, but also in resting naïve T cells and T cells activated in ThN, Th1, Th2, and iTreg polarizing conditions (FIG. 7F). […] Thus, the rapid activation of the AAR pathway by HF could underlie both its selective inhibition of Th17 differentiation and its effects on fibroblasts (Pines and Nagler, Gen. Pharmacol. 30:445, 1998).
To delineate the stress response pathway activated by HF, the effects of amino acid starvation with those of tunicamycin (an inducer of ER stress) or HF treatment during T cell activation were compared.
Whole cell lysates were generated from T cells activated for the indicated times. For STAT3 and Smad2/3 western blots cells were harvested, washed in PBS and lysed in 50 mM Tris, pH 7.4, 0.1% SDS, 1% Triton-X100, 140 mM NaCl, 1 mM EDTA, 1 mM EGTA supplemented with protease inhibitors tablets (Roche, Germany), 1 mM NaF and 1 mM Na3VO4. For eIF2α and ATF4 western blots, cells were harvested as above and lysed in 50 mM Tris, pH 7.4, 2% SDS, 20% glycerol and 2 mM EDTA supplemented with protease and phosphatase inhibitors as above. All lysates were cleared via centrifugation and 15-30 μg of protein was resolved by SDS-PAGE. Protein was transferred to nitrocellulose membranes, blocked and blotted using specific antibodies. Antibodies used for western blot analysis were anti-phospho-Smad2, anti-STAT3 (pY705), anti-STAT3, anti-eIF2α^pS51, anti-eIF2α (all from Cell Signaling Technology, Danvers, Mass.). Anti-ATF4/CREB2 and anti-β-actin were purchased from Santa Cruz Biotechnology (Santa Cruz, Calif.). HRP-conjugated secondary antibodies were all purchased from Sigma, with the exception of HRP-conjugated anti-armenian hamster antibody (Jackson Immunoresearch, West Grove, Pa.).

Compound	inhibition of Th17 differentiation / IL-17 expression (in words) [2]	Fibroblast inhibition [3]	Translational inhibition [4]	other results
N/N=C(/CC1NCCCC1O)Cn1cnc2cc(Br)c(Cl)cc2c1=O (stereo not shown) [MAZ1686]	selectively inhibit the differentiation of Th17 cells			effect on Th1, Th2, iTreg differentiation [1]: without inhibiting Th1 differentiation
CCOP(=O)(OCC)OC1CCCNC1CC(=O)Cn1cnc2cc(Br)c(Cl)cc2c1=O (stereo not shown) [Compound 16, (2S/R,3R/S)-2-(3-(7-bromo-6-chloro-4-oxoquinazolin-3(4H)-yl)-2-oxopropyl)piperidin-3-yl diethyl phosphate]		−	−	
CC(C)(C)OC(=O)N1CCCC(O)C1CC(=O)Cn1cnc2cc(Br)c(Cl)cc2c1=O (stereo not shown) [Compound 9, (2S/R,3R/S)-tert-butyl 2-(3-(7-bromo-6-chloro-4-oxoquinazolin-3(4H)-yl)-2-oxopropyl)-3-hydroxypiperidine-1-carboxylate]		−	−	Inhibition of Th17 differentiation [5]: −; phosphorylation of Ser51 of eIF2alpha, GCN2 dependence ([6]; 10 nM, T cells from wild type or GCN2−/− mice): inactive
NCCOCCOCCNC(=O)CCCC#Cc1cc2ncn(CC(=O)CC3NCCCC3O)c(=O)c2cc1Cl (stereo not shown) [Compound 8, N-(2-(2-(2-aminoethoxy)ethoxy)ethyl)-6-(6-chloro-3-(3-((2S/R,3R/S)-3-hydroxypiperidin-2-yl)-2-oxopropyl)-4-oxo-3,4-dihydroquinazolin-7-yl)hex-5-ynamide]		+	+	
COC(=O)CCCCC(=O)N/N=C(/CC1NCCCC1O)Cn1cnc2cc(Br)c(Cl)cc2c1=O (stereo not shown) [Compound 12, methyl 6-((Z)-2-(1-(7-bromo-6-chloro-4-oxoquinazolin-3(4H)-yl)-3-((2S/R,3R/S)-3-hydroxypiperidin-2-yl)propan-2-ylidene)hydrazinyl)-6-oxohexanoate]		++	++	
O=C(CC1NCCCC1O)Cn1cnc2cc(Br)c(Cl)cc2c1=O (single isomer, unassigned) [D-enantiomer of HF]	inhibited IL-17 expression more potently than a racemic mixture			
N-(6-((Z)-2-(1-(7-bromo-6-chloro-4-oxoquinazolin-3(4H)-yl)-3-((2S/R,3R/S)-3-hydroxypiperidin-2-yl)propan-2-ylidene)hydrazinyl)-6-oxohexyl)-6-(5-(2-oxohexahydro-1H-thieno[3,4-d]imidazol-4-yl)pentanamido)hexanamide [Compound 13]		++	++	Inhibition of Th17 differentiation [5]: ++
tunicamycin	had little influence on IL-17 expression in T cells			effect on Th1, Th2, iTreg differentiation [1]: preferentially impaired Th1 and Th2 differentiation; stress response pathway: eIF2α phosphorylation, ATF4 expression, Xbp-1 splicing ([6]; 10 nM HF or 1 μg/ml tunicamycin): induced eIF2α phosphorylation and ATF4 expression together with Xbp-1 splicing
O=C(CC1NCCCC1O)Cn1cnc2ccccc2c1=O (stereo not shown) [Compound 3, febrifugine]		++	++	Inhibition of Th17 differentiation [5]: ++
C[C@@H]1C[C@H](C)C[C@H](C)[C@@H](O)CC(=O)O[C@H]([C@@H]2CCC[C@H]2C(=O)O)C/C=C/C=C(/C#N)[C@H](O)[C@@H](C)C1 [Borrelidin]	inhibits Th17 differentiation			effect on Th1, Th2, iTreg differentiation [1]: without affecting Th1, Th2, or Treg differentiation or cell number
C[Si](C)(C)C#Cc1cc2ncn(CC(=O)CC3NCCCC3O)c(=O)c2cc1Cl (stereo not shown) [Compound 5, 6-chloro-3-(3-((2S/R,3R/S)-3-hydroxypiperidin-2-yl)-2-oxopropyl)-7-((trimethylsilyl)ethynyl)quinazolin-4(3H)-one]		++		
C#Cc1cc2ncn(CC(=O)CC3NCCCC3O)c(=O)c2cc1Cl (stereo not shown) [MAZ1320]	selectively inhibit the differentiation of Th17 cells			effect on Th1, Th2, iTreg differentiation [1]: without inhibiting Th1 differentiation
C#Cc1cc2ncn(CC(=O)CC3NCCCC3O)c(=O)c2cc1Cl (stereo not shown) [Compound 7, 6-chloro-7-ethynyl-3-(3-((2S/R,3R/S)-3-hydroxypiperidin-2-yl)-2-oxopropyl)quinazolin-4(3H)-one]		+++	+++	Inhibition of Th17 differentiation [5]: +++
N[C@H](CO)Cc1c[nH]c2ccccc12 [L-tryptophanol]	impaired IL-17 production			inhibition of Th17 differentiation / IL-17 expression (in words) ([2]; listed as tryptophanol): inhibited Th17 differentiation
O=C(CC1NCCCC1O)Cn1cnc2cc(Br)c(Cl)cc2c1=O (single isomer, unassigned) [L-enantiomer]	completely inactive			
CC(=O)N/N=C(/CC1NCCCC1O)Cn1cnc2cc(Br)c(Cl)cc2c1=O (stereo not shown) [Compound 14, (Z)—N′-(1-(7-bromo-6-chloro-4-oxoquinazolin-3(4H)-yl)-3-((2S/R,3R/S)-3-hydroxypiperidin-2-yl)propan-2-ylidene)acetohydrazide]			++	

From US9284297B2, “Halofuginone analogs for inhibition of tRNA synthetases and uses thereof” (President and Fellows of Harvard College, priority 2008, dated 2016)
